The subject of series [1] is Tg (fli:EGFP) zebrafish embryos. The series can be described thus: Zebrafish subintestinal vessel (SIV) formation. It is filed as in vivo. The note with it: 0.5 µM, 3 days. The protocol: The Tg (fli:EGFP) zebrafish embryos were collected, and embryos with the same development stage (around 2.5 hpf) were selected. Groups containing at least 25 embryos were treated with the indicated compounds at 0.5 µM for 3 days. The egg water was refreshed every day, and the abnormal embryos were removed. After 3 days of treatment, the zebrafish embryos were fixed in 4% PFA for 2 h at room temperature and stored at 4 °C in PBS. The area containing SIV in each zebrafish embryo was scanned with an Andor Dragonfly 500 spinning disk confocal by using a 488 nm laser. At least ten zebrafish embryos in each group were randomly selected and analyzed. The SIV vasculature of the zebrafish was quantified with ImageJ. The leading buds were counted as previously described. The experiments were repeated twice with similar results.

The test system is the same in series [2]. Briefly: Zebrafish DLAV and ISV formation. To be noted: 0.5 µM, 20 h. It is filed as in vivo. The protocol: The Tg (fli:EGFP) zebrafish embryos were collected, and embryos with the same development stage (around 2.5 hpf) were selected. The eggs were randomly separated into different groups, and each group contained at least 20 embryos. The embryos were exposed to egg water containing 0.5 µM compounds or vehicle control (equal amount of DMSO) for 20 h at 28 °C. Next, all the eggs were dechorionated under the microscope using tweezers. The zebrafish embryos were fixed in 4% paraformaldehyde (PFA) for 2 h at room temperature and stored at 4 °C in phosphate-buffered saline (PBS). The entire zebrafish embryo was imaged with an Andor Dragonfly 500 spinning disk confocal (Oxford Instruments, Abingdon, UK) using a 488 nm laser. Five embryos in each group were randomly selected and scanned. The zebrafish vasculature formation of DLAV and ISV after 20 h treatment with compounds was quantified using ImageJ as previously described. The experiments were repeated twice with similar results.

In the next series the target is ACVR2A (Homo sapiens, UniProt P27037). The series can be described thus: radiometric protein kinase assay, affinity (Kd). Format: binding. Here is the method:
(§1) The binding interaction profile of the compounds for ALK1–6, ACVR2A, ACVR2B, and TGFβR2 was determined by using radiometric protein kinase assay. For each compound, ten different concentrations (from 3 × 10^−6 M to 9 × 10^−11 M) were used in the protein kinase reaction. The inhibitor binding constants (Kd values) were calculated based on the 10 corresponding residual activities for each compound using Prism 5.04 (Graphpad, San Diego, CA, USA) according to the following formula:Kd = ([K][I]/[C]) where [K] = molar concentration of non-inhibitor bound kinase at equilibrium, [I] = molar concentration of the free inhibitor at equilibrium, [C] = molar concentration of kinase-inhibitor complex at equilibrium.

Series [3] has as its system Tg (fli:EGFP) zebrafish embryos. The series can be described thus: Zebrafish embryo toxicity assay. It is filed as in vivo. To be noted: 0.5 µM in egg water, three days. Here is the method:
Breeding pairs of the transgenic Casper zebrafish line Tg (fli:EGFP) were put together in a tank, and the next morning, all embryos were collected as previously described. Fertilized eggs that were at the same development stage (around 2.5 h post-fertilization (hpf)) were selected under the microscope. The eggs were randomly divided into different groups, and each group contained about 20 embryos. All the embryos were raised in egg water (60 μg/mL sea salt) and placed in a 28 °C incubator. The compounds dissolved in DMSO were diluted in egg water to a final concentration of 0.5 µM. Equal amounts of DMSO were added to the vehicle control group. Egg water was changed every day, and abnormal embryos were removed. Embryos were recorded until day 3. All experiments were performed in technical triplicates and repeated three times, and representative results are shown. The survival rate was calculated according to the following formula: Survival rate (%) = 100% × (Number of zebrafish that survived at the end)/(Number of zebrafish present at the beginning).

In the next series the target is T1, SIK2 (Homo sapiens, UniProt Q9H0K1).
T1 construct: purchased ProQinase (33PanQinase Activity Assay)
Briefly: radiometric kinase profiling (33 PanQinase). It is filed as biochemical. The note with it: read-out: Inhibitory effect (%) SIK2. The method, boiled down: (§2)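 Enzyme/substrate mixes were incubated with [γ-33P]-ATP and compound (added as a 0.1 μM solution in 10% DMSO) at 30 °C for 60 min, then stopped with H3PO4 and washed with NaCl. 33P incorporation was scintillation-counted, and residual activity (%) was normalized to untreated control and background.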

A further series concerns the target T2, FLT3 (Homo sapiens, UniProt P36888).
T2 construct: purchased ProQinase (33PanQinase Activity Assay)
The series can be described thus: radiometric kinase profiling (33 PanQinase). To be noted: read-out: Inhibitory effect (%) FLT3. Format: biochemical. The method, boiled down:
as §2

The target of another series is T3, MAP4K5 (Homo sapiens, UniProt Q9Y4K4).
T3 construct: purchased ProQinase (33PanQinase Activity Assay)
The series can be described thus: radiometric kinase profiling (33 PanQinase). Format: biochemical. To be noted: read-out: Inhibitory effect (%) MAP4K5. The method, boiled down: as §2

For another series, the target named is T4, MAP4K4 (Homo sapiens, UniProt O95819).
T4 construct: purchased ProQinase (33PanQinase Activity Assay)
Briefly: radiometric kinase profiling (33 PanQinase). To be noted: read-out: Inhibitory effect (%) MAP4K4. It is filed as biochemical. The method, boiled down:
as §2

Another series has as its target T5, BRAF (Homo sapiens, UniProt P15056).
T5 construct: purchased Proqinase, Germany
The series can be described thus: radiometric kinase profiling (33 PanQinase). Format: biochemical. To be noted: read-out: Inhibitory effect (%) BRAF. The method in brief:
as §2

Another series deals with T6, FGFR3 (Homo sapiens, UniProt P22607).
T6 construct: purchased ProQinase (33PanQinase Activity Assay)
Briefly: radiometric kinase profiling (33 PanQinase). The note with it: read-out: Inhibitory effect (%) FGFR3. Format: biochemical. The method in brief: as §2

Another series deals with ALK1 (Homo sapiens, UniProt P37023). Briefly: radiometric protein kinase assay, affinity (Kd). It is filed as binding. The protocol:
The binding interaction profile of the compounds for ALK1–6, ACVR2A, ACVR2B, and TGFβR2 was determined by using radiometric protein kinase assay. For each compound, ten different concentrations (from 3 × 10^−6 M to 9 × 10^−11 M) were used in the protein kinase reaction.

For the next series, the target named is ALK4 (Homo sapiens, UniProt P36896). Briefly: radiometric protein kinase assay, affinity (Kd). Format: binding. The protocol: as §1
For the next series, the target named is ALK2 (Homo sapiens, UniProt Q04771). The series can be described thus: radiometric protein kinase assay, affinity (Kd). Format: binding. The protocol:
as §1

The target in a further series is ACVR2B (Homo sapiens, UniProt Q13705). The series can be described thus: radiometric protein kinase assay, affinity (Kd). Format: binding. The protocol: as §1
For the next series, the target named is ALK3 (Homo sapiens, UniProt P36894). Briefly: radiometric protein kinase assay, affinity (Kd). It is filed as binding. Here is the method:
as §1

Chain of ACVR2A (P27037 20-513): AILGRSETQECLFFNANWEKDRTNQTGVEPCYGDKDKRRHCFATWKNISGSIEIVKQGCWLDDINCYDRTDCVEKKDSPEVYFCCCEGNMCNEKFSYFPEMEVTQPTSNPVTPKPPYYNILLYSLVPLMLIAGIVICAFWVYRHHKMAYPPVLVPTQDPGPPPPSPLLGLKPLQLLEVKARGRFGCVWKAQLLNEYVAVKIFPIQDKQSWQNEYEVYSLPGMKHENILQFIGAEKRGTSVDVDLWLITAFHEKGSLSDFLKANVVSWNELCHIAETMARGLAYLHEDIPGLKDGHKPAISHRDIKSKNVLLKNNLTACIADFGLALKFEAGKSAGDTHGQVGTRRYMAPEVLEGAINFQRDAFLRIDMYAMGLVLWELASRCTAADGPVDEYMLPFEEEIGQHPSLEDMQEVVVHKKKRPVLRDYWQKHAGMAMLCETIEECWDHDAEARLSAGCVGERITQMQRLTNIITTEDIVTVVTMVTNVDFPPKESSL
Chain of ALK2 (Q04771 21-509): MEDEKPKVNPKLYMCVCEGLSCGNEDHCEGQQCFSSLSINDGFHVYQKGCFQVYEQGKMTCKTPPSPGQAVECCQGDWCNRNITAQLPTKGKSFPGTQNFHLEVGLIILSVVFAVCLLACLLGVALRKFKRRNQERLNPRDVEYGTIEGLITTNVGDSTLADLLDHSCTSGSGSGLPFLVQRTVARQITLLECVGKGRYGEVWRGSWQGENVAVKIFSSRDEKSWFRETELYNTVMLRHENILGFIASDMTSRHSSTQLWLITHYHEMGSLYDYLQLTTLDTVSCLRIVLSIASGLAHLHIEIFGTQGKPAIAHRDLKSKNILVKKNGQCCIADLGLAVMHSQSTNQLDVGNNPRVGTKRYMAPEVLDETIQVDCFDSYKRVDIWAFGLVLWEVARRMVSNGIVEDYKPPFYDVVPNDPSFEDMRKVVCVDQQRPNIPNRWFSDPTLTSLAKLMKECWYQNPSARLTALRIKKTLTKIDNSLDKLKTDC
T6 sequence (P22607 23-806): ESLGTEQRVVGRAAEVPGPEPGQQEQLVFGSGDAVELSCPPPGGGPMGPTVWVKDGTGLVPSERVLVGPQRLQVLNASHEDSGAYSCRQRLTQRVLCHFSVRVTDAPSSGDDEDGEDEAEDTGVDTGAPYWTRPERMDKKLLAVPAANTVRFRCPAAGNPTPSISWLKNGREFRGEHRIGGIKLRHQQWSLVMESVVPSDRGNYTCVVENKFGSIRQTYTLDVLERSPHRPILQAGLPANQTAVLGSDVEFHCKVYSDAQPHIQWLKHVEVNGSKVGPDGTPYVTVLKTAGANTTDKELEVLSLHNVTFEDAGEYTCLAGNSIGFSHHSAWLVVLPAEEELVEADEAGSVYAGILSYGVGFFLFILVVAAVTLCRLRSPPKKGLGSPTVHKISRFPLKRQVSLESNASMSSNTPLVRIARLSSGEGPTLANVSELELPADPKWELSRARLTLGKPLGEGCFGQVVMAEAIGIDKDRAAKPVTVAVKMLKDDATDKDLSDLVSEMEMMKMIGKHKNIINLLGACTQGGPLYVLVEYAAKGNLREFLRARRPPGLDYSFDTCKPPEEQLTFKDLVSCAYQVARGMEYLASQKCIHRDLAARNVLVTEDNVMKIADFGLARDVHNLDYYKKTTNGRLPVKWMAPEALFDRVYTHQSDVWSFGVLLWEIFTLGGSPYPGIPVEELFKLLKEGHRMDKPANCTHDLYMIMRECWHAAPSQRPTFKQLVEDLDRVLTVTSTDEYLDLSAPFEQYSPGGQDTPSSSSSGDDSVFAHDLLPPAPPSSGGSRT
T3 sequence (Q9Y4K4 whole entry): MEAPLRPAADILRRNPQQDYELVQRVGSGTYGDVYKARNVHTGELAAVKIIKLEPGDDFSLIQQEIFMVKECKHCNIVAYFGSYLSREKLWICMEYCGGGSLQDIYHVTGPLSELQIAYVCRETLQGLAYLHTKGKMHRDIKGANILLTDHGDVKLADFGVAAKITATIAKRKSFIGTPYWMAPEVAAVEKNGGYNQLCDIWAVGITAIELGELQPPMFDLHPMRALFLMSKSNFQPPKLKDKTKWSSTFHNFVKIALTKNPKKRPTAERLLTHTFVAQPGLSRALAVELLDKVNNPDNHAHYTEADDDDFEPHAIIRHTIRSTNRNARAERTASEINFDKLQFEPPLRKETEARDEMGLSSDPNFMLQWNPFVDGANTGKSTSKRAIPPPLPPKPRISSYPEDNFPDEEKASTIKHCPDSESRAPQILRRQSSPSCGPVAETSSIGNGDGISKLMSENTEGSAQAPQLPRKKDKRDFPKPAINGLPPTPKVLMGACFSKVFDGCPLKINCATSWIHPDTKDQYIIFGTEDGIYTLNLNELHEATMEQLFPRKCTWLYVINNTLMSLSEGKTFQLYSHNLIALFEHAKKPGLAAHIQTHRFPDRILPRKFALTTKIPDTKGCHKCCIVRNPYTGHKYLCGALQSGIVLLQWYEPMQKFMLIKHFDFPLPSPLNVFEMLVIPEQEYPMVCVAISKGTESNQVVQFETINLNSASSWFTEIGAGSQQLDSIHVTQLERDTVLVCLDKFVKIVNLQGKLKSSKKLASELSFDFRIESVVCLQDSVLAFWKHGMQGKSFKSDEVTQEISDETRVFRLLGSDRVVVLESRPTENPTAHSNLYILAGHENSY
Chain of ACVR2B (Q13705 19-512): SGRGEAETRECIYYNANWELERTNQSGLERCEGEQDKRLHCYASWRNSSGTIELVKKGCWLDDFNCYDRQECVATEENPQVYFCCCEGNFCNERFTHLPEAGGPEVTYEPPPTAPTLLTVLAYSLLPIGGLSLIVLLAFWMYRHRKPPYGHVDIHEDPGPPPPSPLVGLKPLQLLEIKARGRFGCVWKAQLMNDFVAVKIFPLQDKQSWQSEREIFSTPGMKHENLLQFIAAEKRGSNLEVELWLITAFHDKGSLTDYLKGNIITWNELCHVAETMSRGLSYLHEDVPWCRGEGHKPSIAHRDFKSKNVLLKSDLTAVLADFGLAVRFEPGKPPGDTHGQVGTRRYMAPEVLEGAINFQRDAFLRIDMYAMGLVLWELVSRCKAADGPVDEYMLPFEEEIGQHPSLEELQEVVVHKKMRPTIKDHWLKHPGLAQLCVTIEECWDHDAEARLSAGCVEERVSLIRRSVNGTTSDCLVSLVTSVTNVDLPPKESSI
T2 sequence (P36888 27-993): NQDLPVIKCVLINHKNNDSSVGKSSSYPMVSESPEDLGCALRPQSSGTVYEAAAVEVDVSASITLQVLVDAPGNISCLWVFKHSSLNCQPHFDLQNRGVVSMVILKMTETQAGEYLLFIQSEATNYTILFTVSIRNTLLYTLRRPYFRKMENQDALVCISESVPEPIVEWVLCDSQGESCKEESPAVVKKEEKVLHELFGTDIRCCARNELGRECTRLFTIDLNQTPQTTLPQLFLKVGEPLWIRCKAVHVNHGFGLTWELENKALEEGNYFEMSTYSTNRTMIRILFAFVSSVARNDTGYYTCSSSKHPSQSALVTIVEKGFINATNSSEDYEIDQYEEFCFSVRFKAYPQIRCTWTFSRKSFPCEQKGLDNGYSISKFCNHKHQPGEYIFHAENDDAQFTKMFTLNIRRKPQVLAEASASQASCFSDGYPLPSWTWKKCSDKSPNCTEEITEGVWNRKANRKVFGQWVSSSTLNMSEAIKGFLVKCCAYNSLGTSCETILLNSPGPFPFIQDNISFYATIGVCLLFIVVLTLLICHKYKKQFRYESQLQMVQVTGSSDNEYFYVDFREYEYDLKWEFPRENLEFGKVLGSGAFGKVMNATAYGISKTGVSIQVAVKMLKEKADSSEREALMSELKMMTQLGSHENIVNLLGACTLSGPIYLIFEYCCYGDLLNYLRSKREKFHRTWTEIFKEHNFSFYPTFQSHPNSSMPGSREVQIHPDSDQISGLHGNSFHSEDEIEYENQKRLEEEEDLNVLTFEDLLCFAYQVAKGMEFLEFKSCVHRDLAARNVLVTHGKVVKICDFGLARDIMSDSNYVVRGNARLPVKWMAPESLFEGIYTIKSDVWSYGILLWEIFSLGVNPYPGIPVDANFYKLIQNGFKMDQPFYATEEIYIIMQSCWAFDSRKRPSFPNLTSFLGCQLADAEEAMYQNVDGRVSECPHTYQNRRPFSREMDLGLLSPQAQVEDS
T5 sequence (P15056 whole entry): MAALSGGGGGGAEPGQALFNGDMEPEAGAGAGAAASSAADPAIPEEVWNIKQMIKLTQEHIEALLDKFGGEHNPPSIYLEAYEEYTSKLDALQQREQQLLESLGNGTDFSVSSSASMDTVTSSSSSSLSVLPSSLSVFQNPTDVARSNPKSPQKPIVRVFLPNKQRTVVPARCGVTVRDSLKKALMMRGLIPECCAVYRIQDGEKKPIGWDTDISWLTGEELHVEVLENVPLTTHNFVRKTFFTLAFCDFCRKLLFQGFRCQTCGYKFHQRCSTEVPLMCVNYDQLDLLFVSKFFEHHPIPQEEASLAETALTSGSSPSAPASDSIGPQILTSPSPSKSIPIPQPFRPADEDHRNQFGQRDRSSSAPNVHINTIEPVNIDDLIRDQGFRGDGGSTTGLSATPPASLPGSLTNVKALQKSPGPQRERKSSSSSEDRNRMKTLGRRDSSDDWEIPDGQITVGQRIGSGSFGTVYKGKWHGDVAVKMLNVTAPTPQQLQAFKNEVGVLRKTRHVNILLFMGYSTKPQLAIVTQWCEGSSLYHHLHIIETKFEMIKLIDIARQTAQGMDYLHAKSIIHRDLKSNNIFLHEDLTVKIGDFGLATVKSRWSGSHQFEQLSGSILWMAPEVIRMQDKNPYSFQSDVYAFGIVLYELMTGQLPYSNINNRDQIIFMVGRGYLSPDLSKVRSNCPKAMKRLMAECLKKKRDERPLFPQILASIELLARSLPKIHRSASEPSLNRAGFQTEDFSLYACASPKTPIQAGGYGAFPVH

Regarding `CNC(=O)c1ccccc1Sc1ccc2c(/C=C/c3ccccn3)n[nH]c2c1` [Axitinib, reference compound], in series [1], the “effect on SIV vessel length” value is “markedly inhibited”. For the same compound, in [2], the “effect on DLAV and ISV formation (images)” value (shortened to “effect … (images)”) was “strong defects in both DLAV and ISV formation”; the “effect on total vessel length and number of junctions (DLAV and ISV, quantified)” value (shortened to “effect on total vessel length and number”) was “strongly inhibited”.

For `c1ccc2c(-c3cnn4cc(-c5ccc(N6CCNCC6)cc5)cnc34)ccnc2c1` [LDN-193189, reference compound], in series [1], the “effect on SIV vessel length” value is reported as “resulted in a lack of SIV vessels” and the “effect on number of SIV tip cells (leading buds)” value (“effect on number of SIV tip cells” for short) is given as “significantly increased”. For the same compound, the Kd at ACVR2A was found to be 11 nM. In series [2], the “effect … (images)” value is on record as “did not exhibit apparent defects”; the “effect on total vessel length and number” value is on record as “showed no effects”.

With `CN1CCc2cccc(c2)Nc2nccc(n2)N2CCCc3cc(ccc32)C1` [OD16], the “survival rate of the zebrafish” value in series [3] was 80–93%. Besides, the inhibition at 0.1 µM was 43.8% at SIK2; 4.56% at FLT3; 14.6% at MAP4K5; -0.07% at MAP4K4; 5.01% at BRAF; 14.8% on FGFR3. Besides, the “effect on SIV vessel length” value in [1] is listed as “significantly inhibited”. Moreover, in series [1], the “effect on number of SIV tip cells” value was “did not influence”. Also, the Kd amounted to 20 nM on ALK1; 270 nM on ALK4; 17 nM at ALK2; 220 nM on ACVR2B; 55 nM at ALK3; 110 nM at ACVR2A. Further, in series [2], the “effect on DLAV formation” value was “strongly delayed”. The “effect on ISV development” value in series [2] was “slightly inhibited”. For the same compound, the “effect on total vessel length and number” value in series [2] is given as “significantly inhibited”.

As to `CN1CCC(=O)NCCNc2ccn3ncc(c3n2)-c2cccc(c2)C1` [OD29], the “survival rate of the zebrafish” value in series [3] is given as 80–93%. For the same compound, the inhibition at 0.1 µM at SIK2 is 1.13%; at FLT3, -4.23%; on MAP4K5, 19.1%; on MAP4K4, 13.5%; on BRAF, 5.1%; on FGFR3 it was 49.5%. Also, the “effect on SIV vessel length” value in [1] was “significantly inhibited”. Moreover, the “effect on number of SIV tip cells” value in [1] is reported as “did not influence”. The Kd on ALK1 turned out to be 6 nM; at ALK4, 652 nM; on ALK2 it was 10 nM; at ACVR2B, 558 nM; at ALK3, 1010 nM; at ACVR2A, 1240 nM. For the same compound, the “effect … (images)” value in [2] was “strong negative impact”. Further, the “effect on total vessel length and number” value in [2] is reported as “significantly inhibited”.

Source of the values: paper PMC8231556, “Inhibiting Endothelial Cell Function in Normal and Tumor Angiogenesis Using BMP Type I Receptor Macrocyclic Kinase Inhibitors” (Cancers, 2021).
